This is an account of results in patent US7888386B2, “3-(phenoxyphenylmethyl)pyrrolidine compounds” (Theravance, Inc., priority 2008, dated 2011).

For one assay, the target named is T1, hSERT (Homo sapiens, UniProt P31645).
T1 construct: expressed in transfected cells; host or cells: HEK-293 derived cell line, stably transfected; membrane preparation
Briefly: hSERT binding assay (Assay 1). A digest of the protocol: (§1)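 Membranes from HEK-293 cells stably expressing human NET or SERT competed test compound against ^3H-nisoxetine (hNET) or ^3H-citalopram (hSERT). Buffer was 50 mM Tris-HCl pH 7.4, 120 mM NaCl, 5 mM KCl, 0.1% BSA and 400 μM ascorbic acid.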

Another assay concerns the target T2, hNET (Homo sapiens, UniProt P23975).
T2 construct: expressed in transfected cells; host or cells: HEK-293 derived cell line, stably transfected; membrane preparation
Put plainly: hNET binding assay (Assay 1). Conditions: read-out: NET pKi (converted). In short, it runs like this: as §1

The mark [1] stands for this setting: ratio of binding Ki at hSERT to Ki at hNET, rounded off to the nearest tenth.
Setting [2] is: membranes of HEK-293 cells expressing hNET, 1.0 nM 3H-nisoxetine.
[3] abbreviates: ratio of SERT Ki to NET Ki from binding assays.

The structures appear in SMILES notation. Like-named read-outs stand apart in the source and are kept apart here.

T1 sequence (P31645 whole entry): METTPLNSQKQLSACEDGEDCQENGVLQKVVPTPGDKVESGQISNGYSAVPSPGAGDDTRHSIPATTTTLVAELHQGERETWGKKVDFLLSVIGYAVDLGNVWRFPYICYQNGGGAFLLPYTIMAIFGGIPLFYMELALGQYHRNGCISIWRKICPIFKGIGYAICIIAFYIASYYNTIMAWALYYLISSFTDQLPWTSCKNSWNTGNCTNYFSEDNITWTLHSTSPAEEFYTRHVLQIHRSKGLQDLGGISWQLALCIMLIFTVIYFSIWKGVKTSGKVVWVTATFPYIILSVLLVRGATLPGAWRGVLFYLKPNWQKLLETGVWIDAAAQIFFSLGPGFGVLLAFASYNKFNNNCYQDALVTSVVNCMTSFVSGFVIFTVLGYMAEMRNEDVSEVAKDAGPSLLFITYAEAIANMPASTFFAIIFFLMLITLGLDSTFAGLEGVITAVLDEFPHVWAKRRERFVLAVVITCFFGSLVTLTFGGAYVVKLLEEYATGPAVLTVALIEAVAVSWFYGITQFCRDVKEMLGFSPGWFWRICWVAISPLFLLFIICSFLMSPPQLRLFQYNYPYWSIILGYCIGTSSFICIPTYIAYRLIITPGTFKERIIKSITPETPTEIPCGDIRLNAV
T2 sequence (P23975 whole entry): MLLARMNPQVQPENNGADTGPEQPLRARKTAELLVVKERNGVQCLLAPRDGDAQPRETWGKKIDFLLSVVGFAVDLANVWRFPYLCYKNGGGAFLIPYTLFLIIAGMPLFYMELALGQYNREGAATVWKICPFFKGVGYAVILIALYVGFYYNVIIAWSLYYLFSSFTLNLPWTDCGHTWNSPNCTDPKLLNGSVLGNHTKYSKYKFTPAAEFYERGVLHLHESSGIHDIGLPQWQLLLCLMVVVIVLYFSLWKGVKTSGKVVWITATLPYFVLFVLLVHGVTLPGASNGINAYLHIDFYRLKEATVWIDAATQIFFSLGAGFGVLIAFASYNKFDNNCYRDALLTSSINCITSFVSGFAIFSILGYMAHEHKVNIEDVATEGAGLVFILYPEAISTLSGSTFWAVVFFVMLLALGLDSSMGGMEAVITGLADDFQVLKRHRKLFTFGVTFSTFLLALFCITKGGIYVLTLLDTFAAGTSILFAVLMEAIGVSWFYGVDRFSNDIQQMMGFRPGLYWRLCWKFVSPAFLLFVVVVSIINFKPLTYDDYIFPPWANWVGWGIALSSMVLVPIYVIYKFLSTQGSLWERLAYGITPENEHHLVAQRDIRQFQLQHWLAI

Take `CCc1ccccc1OC(c1ccccc1)C1CCNC1` (stereo not shown) [Compound 19-11]: the “SERT Ki/NET Ki” value on hSERT (setting [1]) is 4. Besides, the Ki at hNET (setting [2]) was 3.16 nM.
The corresponding values for `CC(C)c1ccccc1OC(c1ccccc1)C1CCNC1` (stereo not shown) [Compound 19-12] are 16 and 2 nM.
The matching figures for `FC(F)(F)c1ccccc1OC(c1ccccc1)C1CCNC1` (stereo not shown) [Compound 19-13]: 7.9 and 2.51 nM.
Regarding `CC(C)Oc1ccccc1OC(c1ccccc1)C1CCNC1` (stereo not shown) [Compound 19-17], the “SERT Ki/NET Ki” value on hSERT (setting [1]) is given as 40. For the same molecule, the Ki at hNET (setting [2]) is 3.16 nM.
As to `FC(F)(F)Oc1ccccc1OC(c1ccccc1)C1CCNC1` (stereo not shown) [Compound 19-18], the “SERT Ki/NET Ki” value at hSERT (setting [1]) is reported as 20. Also, the Ki at hNET (setting [2]) is 1.26 nM.
The corresponding values for `c1ccc(-c2ccccc2OC(c2ccccc2)C2CCNC2)cc1` (stereo not shown) [Compound 19-19] are 32 and 2 nM.
As for `c1ccc(Cc2ccccc2OC(c2ccccc2)C2CCNC2)cc1` (stereo not shown) [Compound 19-20], the “SERT Ki/NET Ki” value on hSERT (setting [1]) is listed as 1.6. In addition, the Ki on hNET (setting [2]) was 7.94 nM.
The matching figures for `c1ccc(Cc2ccccc2OC(c2ccccc2)C2CCNC2)cc1` (stereo not shown) [Compound 19-21]: 5 and 5.01 nM.
As for `CCC(=O)c1ccccc1OC(c1ccccc1)C1CCNC1` (stereo not shown) [Compound 19-26], the “SERT Ki/NET Ki” value on hSERT (setting [1]) came to 50. At hNET (setting [2]), the Ki is 3.98 nM.
The corresponding values for `CCC(=O)c1ccccc1OC(c1ccccc1)C1CCNC1` (stereo not shown) [Compound 19-27] are 100 and 2 nM.
The corresponding values for `CSc1ccccc1OC(c1ccccc1)C1CCNC1` (stereo not shown) [Compound 19-29] are 25 and 0.631 nM.
As for `CSc1ccccc1OC(c1ccccc1)C1CCNC1` (stereo not shown) [Compound 19-30], on hSERT (setting [1]), the “SERT Ki/NET Ki” value was 63. Further, on hNET (setting [2]), the Ki was 0.398 nM.
The corresponding values for `Clc1ccccc1OC(c1ccccc1Cl)C1CCNC1` (stereo not shown) [Compound 20-1] are 0.5 and 3.16 nM.
The corresponding values for `Fc1cccc(C(Oc2ccccc2Cl)C2CCNC2)c1` (stereo not shown) [Compound 20-4] are 0.63 and 2.51 nM.
Consider `Clc1cccc(C(Oc2ccccc2Cl)C2CCNC2)c1` (stereo not shown) [Compound 20-5], for which, at hSERT (setting [1]), the “SERT Ki/NET Ki” value turned out to be 1.6. For the same molecule, on hNET (setting [2]), the Ki was 2.51 nM.
`COc1cccc(C(Oc2ccccc2Cl)C2CCNC2)c1` (stereo not shown) [Compound 20-7]: the “SERT Ki/NET Ki” value on hSERT (setting [1]) is listed as 1.3. The Ki on hNET (setting [2]) was 3.16 nM.
The corresponding values for `COc1cccc(C(Oc2ccccc2C(C)C)C2CCNC2)c1` (stereo not shown) [Compound 20-10] are 2.5 and 5.01 nM.
The matching figures for `CC(C)c1ccccc1OC(c1cccc(Cl)c1)C1CCNC1` (stereo not shown) [Compound 20-12]: 7.9 and 5.01 nM.
The corresponding values for `CC(C)c1ccccc1OC(c1cccc(F)c1)C1CCNC1` (stereo not shown) [Compound 20-13] are 10 and 5.01 nM.
`COc1ccccc1OC(c1cccc(F)c1)C1CCNC1` (stereo not shown) [Compound 20-15]: the “SERT Ki/NET Ki” value at hSERT (setting [1]) was found to be 4. Moreover, the Ki on hNET (setting [2]) is 5.01 nM.
The corresponding values for `COc1ccccc1OC(c1ccccc1Cl)C1CCNC1` (stereo not shown) [Compound 20-16] are 4 and 1.26 nM.
The corresponding values for `COc1ccccc1OC(c1ccccc1Cl)C1CCNC1` (stereo not shown) [Compound 20-17] are 13 and 1 nM.
Take `COc1ccccc1OC(c1ccc(Cl)cc1)C1CCNC1` (stereo not shown) [Compound 20-21]: the “SERT Ki/NET Ki” value at hSERT (setting [1]) is on record as 4. In addition, at hNET (setting [2]), the Ki is 2 nM.
The corresponding values for `COc1ccccc1OC(c1ccccc1OC(F)(F)F)C1CCNC1` (stereo not shown) [Compound 20-23] are 1.6 and 5.01 nM.
Consider `COc1ccccc1OC(c1cccc(CO)c1)C1CCNC1` (stereo not shown) [Compound 20-26], for which the “SERT Ki/NET Ki” value at hSERT (setting [1]) is 10. In addition, the Ki on hNET (setting [2]) is 3.98 nM.
The corresponding values for `COc1ccccc1OC(c1cccc(C(N)=O)c1)C1CCNC1` (stereo not shown) [Compound 20-30] are 25 and 2.51 nM.
Take `COc1ccccc1O[C@H](c1cc(F)cc(F)c1)[C@@H]1CCNC1` [Compound 20-34]: the “SERT Ki/NET Ki” value on hSERT (setting [1]) is 1. Besides, the Ki on hNET (setting [2]) was 3.98 nM.
`COc1ccccc1OC(c1cc(F)cc(Cl)c1)C1CCNC1` (stereo not shown) [Compound 20-35]: at hSERT (setting [1]), the “SERT Ki/NET Ki” value came to 16. The Ki on hNET (setting [2]) is 0.631 nM.
The matching figures for `Fc1cccc(OC(c2ccccc2)C2CCNC2)c1` (stereo not shown) [Compound 21-1]: 1 and 3.98 nM.
The matching figures for `Brc1cccc(OC(c2ccccc2)C2CCNC2)c1` (stereo not shown) [Compound 21-5]: 0.2 and 3.16 nM.
The matching figures for `Ic1cccc(OC(c2ccccc2)C2CCNC2)c1` (stereo not shown) [Compound 21-6]: 0.2 and 3.98 nM.
Consider `Cc1cccc(OC(c2ccccc2)C2CCNC2)c1` (stereo not shown) [Compound 21-7], for which, at hSERT (setting [1]), the “SERT Ki/NET Ki” value is 0.5. Moreover, the Ki at hNET (setting [2]) was 3.98 nM.
The corresponding values for `Cc1cccc(O[C@@H](c2ccccc2)[C@H]2CCNC2)c1` [Compound 21-8] are 2.5 and 6.31 nM.
The corresponding values for `c1ccc(Oc2cccc(OC(c3ccccc3)C3CCNC3)c2)cc1` (stereo not shown) [Compound 21-13] are 1.3 and 1.26 nM.
`Clc1cccc(Oc2cccc(OC(c3ccccc3)C3CCNC3)c2)c1` (stereo not shown) [Compound 21-14]: the “SERT Ki/NET Ki” value on hSERT (setting [1]) turned out to be 0.8. For the same molecule, the Ki on hNET (setting [2]) is 5.01 nM.
`Clc1ccc(Oc2cccc(OC(c3ccccc3)C3CCNC3)c2)cc1` (stereo not shown) [Compound 21-16]: on hSERT (setting [1]), the “SERT Ki/NET Ki” value is listed as 0.3. Also, the Ki on hNET (setting [2]) was 6.31 nM.
The corresponding values for `Fc1cccc(C(Oc2cccc(Cl)c2)C2CCNC2)c1` (stereo not shown) [Compound 22-3] are 0.1 and 7.94 nM.
The corresponding values for `Clc1cccc(OC(c2cccc(Cl)c2)C2CCNC2)c1` (stereo not shown) [Compound 22-4] are 0.2 and 7.94 nM.
Regarding `Cc1ccc(OC(c2ccccc2)C2CCNC2)cc1` (stereo not shown) [Compound 23-6], the “SERT Ki/NET Ki” value at hSERT (setting [1]) was found to be 0.2. The Ki at hNET (setting [2]) was 6.31 nM.
The corresponding values for `c1ccc(COc2ccc(OC(c3ccccc3)C3CCNC3)cc2)cc1` (stereo not shown) [Compound 23-15] are 2 and 7.94 nM.
Regarding `Fc1cccc(OC(c2ccccc2)C2CCNC2)c1F` (stereo not shown) [Compound 25-1], the “SERT Ki/NET Ki” value at hSERT (setting [1]) was found to be 32. Also, at hNET (setting [2]), the Ki is 0.794 nM.
The corresponding values for `Fc1cccc(O[C@H](c2ccccc2)[C@@H]2CCNC2)c1F` [Compound 25-2] are 0.2 and 6.31 nM.
For `Fc1c(Cl)cccc1OC(c1ccccc1)C1CCNC1` (stereo not shown) [Compound 25-3], the “SERT Ki/NET Ki” value on hSERT (setting [1]) is 0.5. Further, the Ki on hNET (setting [2]) was 0.794 nM.
The corresponding values for `Fc1c(Cl)cccc1O[C@H](c1ccccc1)[C@@H]1CCNC1` [Compound 25-5] are 0.1 and 1.58 nM.
The matching figures for `Fc1c(Oc2ccccc2)cccc1OC(c1ccccc1)C1CCNC1` (stereo not shown) [Compound 25-8]: 1.3 and 2.51 nM.
The corresponding values for `Clc1c(Oc2ccccc2)cccc1OC(c1ccccc1)C1CCNC1` (stereo not shown) [Compound 25-15] are 0.2 and 2.51 nM.
Regarding `Cc1c(F)cccc1O[C@@H](c1ccccc1)[C@H]1CCNC1` [Compound 25-19], the “SERT Ki/NET Ki” value at hSERT (setting [1]) came to 4. Besides, the Ki at hNET (setting [2]) is 0.794 nM.
The matching figures for `Cc1c(Cl)cccc1OC(c1ccccc1)C1CCNC1` (stereo not shown) [Compound 25-20]: 0.2 and 0.631 nM.
The corresponding values for `Cc1c(Cl)cccc1OC(c1ccccc1)C1CCNC1` (stereo not shown) [Compound 25-21] are 0.6 and 1.26 nM.
The matching figures for `Cc1c(Cl)cccc1O[C@H](c1ccccc1)[C@@H]1CCNC1` [Compound 25-22]: 0.2 and 0.631 nM.
For the molecule `Cc1cccc(OC(c2ccccc2)C2CCNC2)c1C` (stereo not shown) [Compound 25-23], the “SERT Ki/NET Ki” value on hSERT (setting [1]) turned out to be 0.1. Moreover, the Ki at hNET (setting [2]) is 1.58 nM.
In the case of `Cc1cccc(O[C@@H](c2ccccc2)[C@H]2CCNC2)c1C` [Compound 25-24], the “SERT Ki/NET Ki” value on hSERT (setting [1]) worked out at 0.3. Besides, the Ki at hNET (setting [2]) is 2.51 nM.
The corresponding values for `COc1c(F)cccc1O[C@@H](c1ccccc1)[C@H]1CCNC1` [Compound 25-26] are 13 and 1.26 nM.
Consider `CC(=O)c1c(F)cccc1OC(c1ccccc1)C1CCNC1` (stereo not shown) [Compound 25-30], for which the “SERT Ki/NET Ki” value at hSERT (setting [1]) was found to be 10. Besides, at hNET (setting [2]), the Ki was 3.16 nM.
The corresponding values for `COC(=O)c1c(F)cccc1OC(c1ccccc1)C1CCNC1` (stereo not shown) [Compound 25-34] are 100 and 1 nM.
For `Fc1ccccc1C(Oc1cccc(Cl)c1Cl)C1CCNC1` (stereo not shown) [Compound 26-1], the “SERT Ki/NET Ki” value on hSERT (setting [3]) was found to be 0.1. The Ki at hNET (hNET binding assay) is 1.58 nM.
Turning to `Clc1cccc(C(Oc2cccc(Cl)c2Cl)C2CCNC2)c1` (stereo not shown) [Compound 26-3], the “SERT Ki/NET Ki” value on hSERT (setting [3]) was 0.1. For the same molecule, the Ki at hNET (hNET binding assay) is 5.01 nM.
The corresponding values for `COc1cccc(C(Oc2cccc(Cl)c2Cl)C2CCNC2)c1` (stereo not shown) [Compound 26-6] are 0.1 and 3.98 nM.
In the case of `CCOc1ccccc1OC(c1ccccc1)C1CCNC1` (stereo not shown) [Ex. 5, 3-[(2-Ethoxyphenoxy)phenylmethyl]pyrrolidine], the “SERT Ki/NET Ki” value at hSERT (setting [1]) amounted to 32. On hNET (setting [2]), the Ki is 1.26 nM.
